Measurements: the NIST ThermoML archive (doi:10.1016/j.jct.2018.01.023)
Numbers after ± are expanded uncertainties.

Details: Crystal; for mass density: 101.33 kPa, X-ray diffraction; for Normal melting temperature: DTA

| mass density (293 K) | mass density (473 K) | mass density (573 K) | mass density (673 K) | mass density (773 K) | mass density (873 K) | mass density (973 K) | Compound | Normal melting temperature |
| --- | --- | --- | --- | --- | --- | --- | --- | --- |
| 2634 ± 2 kg/m3 | 2576 ± 12 kg/m3 | 2554 ± 11 kg/m3 | 2522 ± 12 kg/m3 | 2493 ± 13 kg/m3 | 2455 ± 12 kg/m3 | 2432 ± 9 kg/m3 | [F-].[Li+] [lithium fluoride] | 845 ± 10 °C |
| – | – | – | – | – | – | – | [F-].[F-].[F-].[K+].[Ni+2] [nickel potassium fluoride (KNiF3)] | 1120 ± 20 °C |
| 2530 ± 12 kg/m3 | – | – | – | – | – | – | [F-].[K+] [potassium fluoride] | 856 ± 10 °C |

| Compound | mass density (293 K) | mass density (473 K) | mass density (573 K) | mass density (673 K) | mass density (773 K) | mass density (873 K) | mass density (973 K) | Normal melting temperature |
| --- | --- | --- | --- | --- | --- | --- | --- | --- |
| [F][Ni][F] [nickel difluoride] | 4808 ± 24 kg/m3 | – | – | – | – | – | – | 1356 ± 10 °C |
